Where only a bound is given, the exact number is not on record here.

One assay addresses Carbonic anhydrase 9 (Homo sapiens, UniProt Q16790). The experiment in a line: Inhibition of human transmembrane carbonic anhydrase 9 by stopped flow CO2 hydration assay.
The target in the next assay is Carbonic anhydrase 1 (Homo sapiens, UniProt P00915). The experiment in a line: Inhibition of human cytosolic carbonic anhydrase 1 by stopped flow CO2 hydration assay.
Chain of Carbonic anhydrase 1 (P00915 whole entry): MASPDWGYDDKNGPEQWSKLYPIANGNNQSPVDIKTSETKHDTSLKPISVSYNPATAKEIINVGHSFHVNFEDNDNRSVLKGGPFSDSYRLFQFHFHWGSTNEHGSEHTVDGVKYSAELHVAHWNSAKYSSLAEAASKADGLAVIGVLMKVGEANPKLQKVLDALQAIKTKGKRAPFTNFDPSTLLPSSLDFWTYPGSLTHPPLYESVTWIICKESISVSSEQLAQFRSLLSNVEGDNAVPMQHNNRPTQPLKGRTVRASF

One may read the Ki as a dissociation constant, usually derived from enzyme kinetics or from competition with a known ligand. Read a high Ki as a looser hold on the target. With `NS(=O)(=O)c1ccc(-n2c(-c3ccc(Br)cc3)n[nH]c2=S)cc1`, at Carbonic anhydrase 9, the Ki came out at 7.6 nM. In the case of `NS(=O)(=O)c1ccc(-c2nnc3n2N=C(c2ccc(Cl)cc2)CS3)cc1`, the affinity on Carbonic anhydrase 9, expressed as Ki, was 76 nM. The same measure, in the same setting: as for `NS(=O)(=O)c1ccc(-c2nnc3sc(-c4ccc(Br)cc4)nn23)cc1`, the figure is 104 nM. The same measure, in the same setting: as for `Cc1ccc(-c2n[nH]c(=S)n2-c2ccc(S(N)(=O)=O)cc2)cc1`, the figure is 16 nM.

`Cc1ccc(-c2nn3c(-c4ccc(S(N)(=O)=O)cc4)nnc3s2)cc1`: the Ki on Carbonic anhydrase 9 was 356 nM; on Carbonic anhydrase 1, above 10000 nM. Take `NS(=O)(=O)c1ccc(-c2n[nH]c(=S)n2-c2ccc(S(N)(=O)=O)cc2)cc1`: the affinity at Carbonic anhydrase 9, expressed as Ki, was 9 nM. On Carbonic anhydrase 9, `NS(=O)(=O)c1ccc(-c2nnc3n2N=C(c2ccc(F)cc2)CS3)cc1` came in with a Ki of 25 nM. Regarding `COc1ccc(-c2nn3c(-c4ccc(S(N)(=O)=O)cc4)nnc3s2)cc1`, the Ki on Carbonic anhydrase 9 is 431 nM; on Carbonic anhydrase 1 it was above 10000 nM. In turn, `NS(=O)(=O)c1ccc(-n2c(-c3ccc(Cl)cc3)n[nH]c2=S)cc1` came in with a Ki on Carbonic anhydrase 9 of 5.7 nM. Turning to `NS(=O)(=O)c1ccc(-c2nnc3sc(-c4ccc(F)cc4)nn23)cc1`, the Ki at Carbonic anhydrase 9 is 64 nM; on Carbonic anhydrase 1 it was above 10000 nM.

For `NS(=O)(=O)c1ccc(-c2nnc3sc(-c4ccccc4)nn23)cc1`, the affinity at Carbonic anhydrase 9, expressed as Ki, was 114 nM. Take `NS(=O)(=O)c1ccc(-c2nnc3sc(-c4ccc(Cl)cc4)nn23)cc1`: the Ki on Carbonic anhydrase 9 was found to be 89 nM. In the case of `NS(=O)(=O)c1ccc(-c2nnc3n2N=C(c2ccc([N+](=O)[O-])cc2)CS3)cc1`, the Ki at Carbonic anhydrase 9 worked out at 115 nM.

Turning to `NS(=O)(=O)c1ccc(-c2nnc3n2N=C(c2ccc(Br)cc2)CS3)cc1`, the Ki on Carbonic anhydrase 9 was 3.7 nM. Turning to `NS(=O)(=O)c1ccc(-c2nnc3sc(-c4ccc([N+](=O)[O-])cc4)nn23)cc1`, the results for the Ki on Carbonic anhydrase 9 and at Carbonic anhydrase 1 were 41 nM and above 10000 nM, respectively. As for `Cc1ccc(C2=Nn3c(nnc3-c3ccc(S(N)(=O)=O)cc3)SC2)cc1`, the affinity at Carbonic anhydrase 9, expressed as Ki, was 13 nM. Still for that read-out and setting: as for `NS(=O)(=O)c1ccc(-n2c(-c3ccc(F)cc3)n[nH]c2=S)cc1`, the figure is 2.8 nM; as for `NS(=O)(=O)c1ccc(-c2nnc3n2N=C(c2ccccc2)CS3)cc1`, 21 nM.

The values are drawn from ChEMBL document CHEMBL3120130, “Benzenesulfonamide bearing 1,2,4-triazole scaffolds as potent inhibitors of tumor associated carbonic anhydrase isoforms hCA IX and hCA XII” (Bioorg Med Chem, 2014).
